The source of these data is US11174287B2, “Central nervous system homing peptides and uses thereof” (UNIVERSITY OF MARYLAND, BALTIMORE, priority 2017, dated 2021).

Experiment [1] relates to spleen, kidney, liver and lung tissue of normal mice. In words: Peptide overlay assay, FITC-labeled peptide binding in various organs of normal mice. Also noted: species or system mouse. The source says:
(§1) The peptide sequences were synthesized by Genscript (NJ, USA) with at least 95% purity. For fluorescent peptides, fluorescein isothiocyanate (FITC) dye was conjugated at the amino terminus of peptides. The excitation/emission wavelengths for FITC were 490/520 nm.

The test system of experiment [2] is spleen, kidney, liver and lung tissue of EAE mice. In words: Peptide overlay assay, FITC-labeled peptide binding to various organs of EAE mice. Also noted: species or system mouse.
Description: as §1

The test system of experiment [3] is spinal cord and brain cerebellum of EAE mice. As to the kind of experiment: FITC-labeled peptide binding to spinal cord and brain cerebellum. Also noted: species or system mouse. The note with it: compared to scrambled peptide CSGRRGKSC
Description: as §1

The test system of experiment [4] is inflamed central nervous system (spinal cord, brain) of EAE mice. In words: NIR imaging of brain and spinal cord after i.v. injection of Cy7-labeled peptide (IVIS Xenogen). The format is in vivo, mouse. The note with it: for accumulation (NIR signal) in the spinal cord: perfused. Here is the method:
The antigen was prepared by emulsifying the myelin oligodendrocyte glycoprotein (MOG) region of 35-55 peptide sequence with at least >98% purity based on mass spectrophotometry (CS Bio, CA, USA) with an equal volume of complete Freund's adjuvant (CFA) containing 5 mg/ml of heat killed desiccated M. tuberculosis-H37RA (Bacto, MI, USA). The suspension was thoroughly mixed to form a thick emulsion. Experimental autoimmune encephalomyelitis (EAE), which closely resembles human multiple sclerosis (MS) was induced in C57BL/6 mice by subcutaneous injection of 200 μg/MOG/mouse. In addition, 2 doses of 200-400 ng each of Pertussis toxin (Calbiochem, CA, USA) were administered i.p. after MOG injection at 0 and 48 hours.
Near Infrared (NIR) Cyanine 7 (Cy7) dye-labeled test peptide CRGGKRSSC (SEQ ID NO:14) or control peptide was injected into the tail vein of diseased (EAE) mice and naive (control) mice. The peptides were allowed to circulate for 24 hours. Thereafter, mice were euthanized, perfused extensively through the heart using PBS. Following that, the brain and spinal cord were removed and scanned for NIR imaging signals using IVIS Xenogen imaging System.

Ends that are not written are not given here.

“CRAKGRDAC (cysteine pairing not given here; also: FITC label, site not given here) [CNS-homing peptide containing the RAK motif]”: the “binding of FITC-labeled peptide to spleen, kidney, liver and lung tissue” value is given as “minimal binding” in experiment [1] and “minimal binding except for lung” in experiment [2].

Consider “CRGGKRSSC (cysteine pairing not given here; also: FITC label, site not given here) [CNS-homing peptide from CX7C phage library, denoted "KRSS"]”, for which, in experiment [3], the “binding of FITC-labeled peptide to spinal cord and cerebellum” value is on record as “significantly higher binding”. Moreover, the “binding of FITC-labeled peptide to spleen, kidney, liver and lung tissue” value in experiment [1] is “minimal binding except for spleen”; in experiment [2] it was “minimal binding”. Besides, the “homing when injected into the bloodstream” value in experiment [4] (EAE mice versus normal mice) is “preferentially homed to inflamed spinal cord of EAE mice but not in normal mice”.

With “KRSS-Cy7: Near Infrared cyanine 7 (Cy7) dye-labeled test peptide CRGGKRSSC (SEQ ID NO:14) (cysteine pairing not given here; also: Cy7 dye label, site not given here)”, the “NIR signal in the cerebellum” value in experiment [4] (EAE mice versus control mice and control peptide, intensity relative to spinal cord, 24 hours) is recorded as “much lower in intensity”. Also, the “accumulation (NIR signal) in the spinal cord” value in experiment [4] (EAE mice, tail vein injection, 24 hours circulation) is recorded as “significantly higher accumulation”; in experiment [4] (naive (control) mice, tail vein injection, 24 hours circulation) it was “barely showed any detectable signal”. Further, the “NIR signal in the cerebrum” value in experiment [4] (tail vein injection, 24 hours circulation) is recorded as “no signal was detected”.
